Reference: patent US20230117034A1, “PYRAZOLOTRIAZINES” (Bayer Aktiengesellschaft, priority 2019, published 2023)

Experiments:
CDK2/CycE = target: T1, CDK2/CycE (Homo sapiens, UniProt P24941); test: CDK2/CycE kinase assay (TR-FRET, 2 mM ATP); assay type: biochemical; conditions: 2 mM ATP (high ATP); median; read-out: CDK2/CyclinE, 2 mM ATP (high ATP), IC50 (median)
T1 construct: purchased ProQinase GmbH (Freiburg, Germany); host or cells: insect cells (Sf9)
Procedure, shortened: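 Biotin-peptide phosphorylation (0.75 µM substrate, 2 mM ATP final, 25 min, 22 °C) by Sf9-expressed GST-CDK2/GST-CycE, after a 15-min compound pre-binding step. Inhibition scaled between enzyme-free (100%) and uninhibited (0%) wells.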

CDK9/CycT1 = target: T2, CDK9/CycT1 (Homo sapiens, UniProt P50750); test: CDK9/CycT1 high ATP kinase assay (TR-FRET, 2 mM ATP); assay type: biochemical; conditions: 2 mM ATP (high ATP); median; read-out: CDK9/CyclinT1, 2 mM ATP (high ATP), IC50 (median)
T2 construct: Recombinant full-length His-tagged human CDK9 and CycT1; purchased Life Technologies PV4131; host or cells: insect cells
T2 sequence (P50750 whole entry): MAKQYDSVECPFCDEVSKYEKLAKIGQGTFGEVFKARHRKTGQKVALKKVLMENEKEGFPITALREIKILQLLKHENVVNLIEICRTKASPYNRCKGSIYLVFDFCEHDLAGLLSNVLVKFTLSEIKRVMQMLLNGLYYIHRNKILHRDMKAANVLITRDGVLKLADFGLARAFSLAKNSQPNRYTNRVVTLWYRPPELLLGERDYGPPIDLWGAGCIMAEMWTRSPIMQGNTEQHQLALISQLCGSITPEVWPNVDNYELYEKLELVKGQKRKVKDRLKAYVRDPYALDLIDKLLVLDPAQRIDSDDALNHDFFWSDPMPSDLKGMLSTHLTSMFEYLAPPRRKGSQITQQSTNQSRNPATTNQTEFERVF
T2 sequence (O60563 whole entry partner): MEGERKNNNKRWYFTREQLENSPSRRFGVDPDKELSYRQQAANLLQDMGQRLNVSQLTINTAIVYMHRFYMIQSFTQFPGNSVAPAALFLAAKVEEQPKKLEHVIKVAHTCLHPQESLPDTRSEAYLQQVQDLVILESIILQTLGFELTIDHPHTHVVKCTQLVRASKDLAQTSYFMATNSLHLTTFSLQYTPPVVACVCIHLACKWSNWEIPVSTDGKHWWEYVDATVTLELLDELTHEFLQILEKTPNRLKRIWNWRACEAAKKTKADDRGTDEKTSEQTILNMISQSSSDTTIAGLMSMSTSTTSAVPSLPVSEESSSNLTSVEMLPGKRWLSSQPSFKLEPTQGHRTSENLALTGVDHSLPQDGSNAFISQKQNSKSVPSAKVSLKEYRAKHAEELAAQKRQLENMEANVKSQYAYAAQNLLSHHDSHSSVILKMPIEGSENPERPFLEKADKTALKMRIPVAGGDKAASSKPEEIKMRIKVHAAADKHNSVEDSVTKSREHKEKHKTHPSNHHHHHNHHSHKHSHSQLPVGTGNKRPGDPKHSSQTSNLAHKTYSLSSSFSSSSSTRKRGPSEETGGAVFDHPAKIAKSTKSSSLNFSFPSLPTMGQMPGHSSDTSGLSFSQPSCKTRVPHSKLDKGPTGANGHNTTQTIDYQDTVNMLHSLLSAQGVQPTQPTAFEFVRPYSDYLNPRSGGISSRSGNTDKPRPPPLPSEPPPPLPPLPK
Procedure, shortened: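 Full-length His-tagged human CDK9/CycT1 (insect cell, ~0.5 μg/mL) preincubated 15 min at 22 °C with compound in Tris pH 8.0, MgCl2, DTT buffer before reaction with biotinylated peptide substrate at high ATP (2 mM).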

[1] = tested on: BRCA1 mRNA expression in MDA-MB-231 cells; test: qRT-PCR assay: BRCA1 mRNA expression in MDA-MB-231; assay type: cell-based, human; conditions: Homo sapiens, MDA-MB-231, Inhibition of BRCA1 mRNA expression in MDA-MB-231 cells; median; read-out: RTqPCR-MDA-MB-231, IC50, BRCA1 (median)
Description: 3. qRT-PCR Assay: BRCA, ATR, MCL1 in MDA-MB-231, CAL-120
Tissue cultured human MDA-MB-231 human breast cancer cells were plated in 500 microL per well at 200,000 cells/well in a 24 well microtiter plate. After 24 h, the cells were exposed continuously for 24 h to test substances (substances were added with Tecan HP 0300 Dispenser). RNA was prepared using Qiagen RNeasy MiniKit (#74106), RNA was quantified using a NanoDrop Equipment, and 600 nano gamms of RNA was coverted to cDNA using a SuperScript VILO kit (Thermofisher #11755050) followed by qPCR amplification. BRCA1 and ATR gene expression was measured by RT-qPCR and normalised to GAPDH housekeeping gene expression. qPCR primer sets have been purchased from Thermo Fisher Scientific/Applied Biosystems: BRCA1, #Hs 01556193; ATR, #Hs 00992123; GAPDH, #Hs 03929097.

Compound | IC50 (CDK2/CycE) | IC50 (CDK9/CycT1) | IC50 [1]
CN1CCN(c2nc(NCc3nc4cc(Cl)ccc4[nH]3)n3ncc(Br)c3n2)CC1 [Example 163, 8-bromo-N-[(5-chloro-1H-benzimidazol-2-yl)methyl]-2-(4-methylpiperazin-1-yl)pyrazolo[1,5-a][1,3,5]triazin-4-amine] | 10800 nM | > 20000 nM | 1.03 nM
Fc1cccc(-c2nnc(CNc3nc(N4CCNCC4)nc4c(Br)cnn34)[nH]2)c1 [Example 152, 8-bromo-N-{[5-(3-fluorophenyl)-4H-1,2,4-triazol-3-yl]methyl}-2-(piperazin-1-yl)pyrazolo[1,5-a][1,3,5]triazin-4-amine] | 5420 nM | 1990 nM | 4.25 nM
C[C@H]1CN(c2nc(NCc3nnc(-c4ccccc4)[nH]3)n3ncc(Br)c3n2)CCN1C.O=CO [Example 122, 8-bromo-2-[(3S)-3,4-dimethylpiperazin-1-yl]-N-[(5-phenyl-4H-1,2,4-triazol-3-yl)methyl]pyrazolo[1,5-a][1,3,5]triazin-4-amine formate] | 6720 nM | 4260 nM | 24.6 nM
C[C@@H]1CN(c2nc(NCc3nc4ccccc4[nH]3)n3ncc(Br)c3n2)C[C@H](C)N1 [Example 142, N-(1H-benzimidazol-2-ylmethyl)-8-bromo-2-[(3R,5S)-3,5-dimethylpiperazin-1-yl]pyrazolo[1,5-a][1,3,5]triazin-4-amine] | > 19800 nM | > 20000 nM | 19.1 nM
c1cncc(-c2cnn3c(NCc4nc5ccccc5[nH]4)nc(N4CCOCC4)nc23)c1 [Example 108, N-[(1H-benzimidazol-2-yl)methyl]-2-(morpholin-4-yl)-8-(pyridin-3-yl)pyrazolo[1,5-a][1,3,5]triazin-4-amine] | > 20000 nM | > 20000 nM | 87.4 nM
CC(C)c1cnn2c(NCc3nc4ccccc4[nH]3)nc(N3CCOC[C@H]3C)nc12 [Example 7, N-[(1H-benzimidazol-2-yl)methyl]-2-[(3R)-3-methylmorpholin-4-yl]-8-(propan-2-yl)pyrazolo[1,5-a][1,3,5]triazin-4-amine] | 6570 nM | > 20000 nM | 203 nM
C[C@@H]1CN(c2nc(NCc3nc4cc(F)ccc4[nH]3)n3ncc(Br)c3n2)C[C@H](C)O1 [Example 110, 8-bromo-2-[(2R,6S)-2,6-dimethylmorpholin-4-yl]-N-[(5-fluoro-1H-benzimidazol-2-yl)methyl]pyrazolo[1,5-a][1,3,5]triazin-4-amine] | 8210 nM | 5470 nM | 7.51 nM
CN1CCN(c2nc(NCc3nc4c(F)c(F)ccc4[nH]3)n3ncc(C4CC4)c3n2)CC1 [Example 159, 8-cyclopropyl-N-[(4,5-difluoro-1H-benzimidazol-2-yl)methyl]-2-(4-methylpiperazin-1-yl)pyrazolo[1,5-a][1,3,5]triazin-4-amine] | > 20000 nM | > 20000 nM | 1.68 nM
CC(C)c1cnn2c(NCc3nc4ccccc4[nH]3)nc(N3CC4(COC4)C3)nc12 [Example 9, N-[(1H-benzimidazol-2-yl)methyl]-2-(2-oxa-6-azaspiro[3.3]heptan-6-yl)-8-(propan-2-yl)pyrazolo[1,5-a][1,3,5]triazin-4-amine] | 14700 nM | > 20000 nM | 255 nM
C[C@@H]1CN(c2nc(NCc3nc4ccccc4[nH]3)n3ncc(Br)c3n2)C[C@H](C)N1C [Example 129, N-(1H-benzimidazol-2-ylmethyl)-8-bromo-2-[(3R,5S)-3,4,5-trimethylpiperazin-1-yl]pyrazolo[1,5-a][1,3,5]triazin-4-amine] | > 20000 nM | > 20000 nM | 174 nM
Fc1ccc(-c2cnn3c(NCc4nc5ccccc5[nH]4)nc(N4CCOCC4)nc23)cc1 [Example 106, N-[(1H-benzimidazol-2-yl)methyl]-8-(4-fluorophenyl)-2-(morpholin-4-yl)pyrazolo[1,5-a][1,3,5]triazin-4-amine] | > 20000 nM | > 20000 nM | 32.2 nM
C[C@@H]1CN(c2nc(NCc3nnc(-c4ccccc4)[nH]3)n3ncc(Br)c3n2)C[C@H](C)N1C [Example 125, 8-bromo-N-[(5-phenyl-4H-1,2,4-triazol-3-yl)methyl]-2-[(3R,5S)-3,4,5-trimethylpiperazin-1-yl]pyrazolo[1,5-a][1,3,5]triazin-4-amine] | 13200 nM | 3790 nM | 61.1 nM

Compounds with a lower IC50 (CDK2/CycE), results first:

IC50 (CDK2/CycE) | IC50 (CDK9/CycT1) | IC50 [1] | Compound
3880 nM | > 20000 nM | 3.14 nM | Fc1ccc2[nH]c(CNc3nc(N4CCOCC4)nc4c(Br)cnn34)nc2c1 [Example 101, 8-bromo-N-[(5-fluoro-1H-benzimidazol-2-yl)methyl]-2-(morpholin-4-yl)pyrazolo[1,5-a][1,3,5]triazin-4-amine]
2200 nM | 10100 nM | 344 nM | CN1CCN(c2nc(NCc3nnc(-c4ccccc4)[nH]3)n3ncc(Br)c3n2)CC1=O [Example 121, 4-(8-bromo-4-{[(5-phenyl-4H-1,2,4-triazol-3-yl)methyl]amino}pyrazolo[1,5-a][1,3,5]triazin-2-yl)-1-methylpiperazin-2-one]
3020 nM | > 20000 nM | 0.903 nM | Cc1ccc2[nH]c(CNc3nc(N4CCOCC4)nc4c(Br)cnn34)nc2c1 [Example 157, 8-bromo-N-[(5-methyl-1H-benzimidazol-2-yl)methyl]-2-(morpholin-4-yl)pyrazolo[1,5-a][1,3,5]triazin-4-amine]
3240 nM | 13400 nM | 1.68 nM | Fc1cccc2[nH]c(CNc3nc(N4CCOCC4)nc4c(Br)cnn34)nc12 [Example 97, 8-bromo-N-[(4-fluoro-1H-benzimidazol-2-yl)methyl]-2-(morpholin-4-yl)pyrazolo[1,5-a][1,3,5]triazin-4-amine]
3390 nM | 3630 nM | 26.1 nM | Brc1cnn2c(NCc3nnc(-c4ccccc4)[nH]3)nc(N3C[C@H]4C[C@@H]3CO4)nc12 [Example 118, 8-bromo-2-[(1R,4R)-2-oxa-5-azabicyclo[2.2.1]heptan-5-yl]-N-[(5-phenyl-4H-1,2,4-triazol-3-yl)methyl]pyrazolo[1,5-a][1,3,5]triazin-4-amine]
4360 nM | > 20000 nM | 13 nM | Cc1cccc2[nH]c(CNc3nc(N4CCOCC4)nc4c(Br)cnn34)nc12 [Example 150, 8-bromo-N-[(4-methyl-1H-benzimidazol-2-yl)methyl]-2-(morpholin-4-yl)pyrazolo[1,5-a][1,3,5]triazin-4-amine]
3010 nM | > 20000 nM | 123 nM | CCC1COCCN1c1nc(NCc2nc3ccccc3[nH]2)n2ncc(Br)c2n1 (stereo not drawn) [Example 116, N-(1H-benzimidazol-2-ylmethyl)-8-bromo-2-(3-ethylmorpholin-4-yl)pyrazolo[1,5-a][1,3,5]triazin-4-amine]
2280 nM | > 20000 nM | 7.13 nM | Brc1cnn2c(NCc3nc4ccccc4[nH]3)nc(N3CCOCC3)nc12 [Example 4, N-[(1H-benzimidazol-2-yl)methyl]-8-bromo-2-(morpholin-4-yl)pyrazolo[1,5-a][1,3,5]triazin-4-amine]
1780 nM | 9300 nM | 29.4 nM | Clc1ccccc1-c1cnc(CNc2nc(N3CCOCC3)nc3c(Br)cnn23)[nH]1 [Example 96, 8-bromo-N-{[5-(2-chlorophenyl)-1H-imidazol-2-yl]methyl}-2-(morpholin-4-yl)pyrazolo[1,5-a][1,3,5]triazin-4-amine]
4010 nM | 1790 nM | 1.34 nM | C[C@@H]1CN(c2nc(NCc3nc4c(F)cccc4[nH]3)n3ncc(Br)c3n2)C[C@H](C)O1 [Example 109, 8-bromo-2-[(2R,6S)-2,6-dimethylmorpholin-4-yl]-N-[(4-fluoro-1H-benzimidazol-2-yl)methyl]pyrazolo[1,5-a][1,3,5]triazin-4-amine]
1770 nM | 970 nM | 11.2 nM | Fc1ccc(-c2nnc(CNc3nc(N4CCOCC4)nc4c(Br)cnn34)[nH]2)cc1F [Example 99, 8-bromo-N-{[5-(3,4-difluorophenyl)-4H-1,2,4-triazol-3-yl]methyl}-2-(morpholin-4-yl)pyrazolo[1,5-a][1,3,5]triazin-4-amine]
874 nM | > 20000 nM | 25.3 nM | CC(C)c1cnn2c(NCc3nc4ccccc4[nH]3)nc(NCC(C)(C)O)nc12 [Example 10, 1-{[4-{[(1H-benzimidazol-2-yl)methyl]amino}-8-(propan-2-yl)pyrazolo[1,5-a][1,3,5]triazin-2-yl]amino}-2-methylpropan-2-ol]
